Results taken from patent publication US4299830A, “1,5-Methano-1,4-benzodiazocines, intermediates therefor, and method of use and compositions thereof” (Sterling Drug Inc., priority 1980, dated 1981).

Assays:
[1] = Anti-acetylcholine Writhing Test; type: in vivo; details: mice; for ED50: Mus musculus, read-out: ED50 (95% Confidence Limits); for ED50 / ED50 (95% Confidence Limits): expressed as free base
Excerpt: This response has been called writhing.

[2] = Tail-flick Antagonist Test against meperidine; details: Rattus norvegicus, read-out: AD50 (95% Confidence Limits)
[3] = Comparison in three of the foregoing tests with the compound lacking 9-amino; details: relative to Gubitz compound
[4] = Tail-flick Antagonist Test against morphine; details: Rattus norvegicus, read-out: AD50 (95% Confidence Limits)
[5] = EDTA Antinociceptive Test; type: in vivo; details: Cavia porcellus, sc, 0.5 h; subcutaneous, guinea pig, 30 minutes; read-out: subcutaneously effective dose (reduces the response score to 6 or less)
Description: This is also a confirmatory evaluation of analgesic activity. The test animal is the guinea pig. A threshold intradermal dose of ethylenediaminetetraacetic acid (EDTA) which can reproducibly elicit a cumulative response score of 12-18 discrete episodes of jumping, rearing, running, vocalization and biting or scratching at the site of injection within 40 seconds after challenge is determined for each animal. Thirty minutes after the administration of saline or test compound to 6-7 animals per dose, each animal is again challenged with its own threshold dose of EDTA. An effective drug dose is considered to be one which reduces the response score to 6 or less.

Tail-flick Agonist Test = type: in vivo; details: doses up to 120 mg./kg. subcutaneously, rats
[6] = Anti-phenylquinone Writhing Test; type: in vivo; details: Mus musculus, mice, expressed as free base, read-out: ED50 (95% Confidence Limits)
Anti-bradykinin Test = type: in vivo; details: rats, expressed as free base; for ED50: Rattus norvegicus, read-out: ED50 (95% Confidence Limits)
[7] = Tail-flick Antagonist Test against phenazocine; details: for ED50: Rattus norvegicus, read-out: AD50 (95% Confidence Limits); for antagonist response at 1 mg./kg.: 1 mg./kg. subcutaneous; for antagonist response at 10 mg./kg.: 10 mg./kg. subcutaneous

Nc1ccc2c(c1)N1CCN(CC3CC3)C(C2)C1 (racemic) [Example 1D, 4-cyclopropylmethyl-9-amino-3,4,5,6-tetrahydro-2H-1,5-methano-1,4-benzodiazocine]
ED50 ([1]; po): 5.9 mg/kg
ED50 ([1]; sc, subcutaneous): 3.2 mg/kg
ED50 (95% Confidence Limits) ([1]; oral): 5.9 (3.9-8.7) Mg./Kg.
ED50 (95% Confidence Limits) ([1]; subcutaneous): 3.2 (2.0-4.8) Mg./Kg.
ED50 ([2]; sc): 3.3 mg/kg
times more potent than the compound of Formula A (lacking 9-amino) [3]: four to ten
ED50 ([4]; sc): 8.6 mg/kg
minimal effective dose [5]: 1.25 mg/kg
tail-flick agonist activity (Tail-flick Agonist Test): at most inactive or questionably active
ED50 ([6]; sc, subcutaneous): 1.8 mg/kg
ED50 ([6]; oral): 5.7 mg/kg
ED50 (Anti-bradykinin Test; sc, subcutaneous): 2.6 mg/kg
ED50 (Anti-bradykinin Test; oral): 5.4 mg/kg
ED50 (95% Confidence Limits) (Anti-bradykinin Test; subcutaneous): 2.6 (1.5-4.1) Mg./Kg.
ED50 ([7]; sc): 1.6 mg/kg
AD50 (95% Confidence Limits) ([7]; subcutaneous, against phenazocine, expressed as free base): 1.6 (1.0-2.6) mg./kg.

c1ccc2c(c1)CC1CN2CCN1CC1CC1 (stereo not shown) [Compound of Formula A*, 4-cyclopropylmethyl-3,4,5,6-tetrahydro-2H-1,5-methano-1,4-benzodiazocine, reference compound]
ED50 ([1]; po): 32 mg/kg
ED50 ([1]; sc, subcutaneous): 12 mg/kg
ED50 (Anti-bradykinin Test; sc, subcutaneous): 21 mg/kg
ED50 ([7]; sc): 34 mg/kg

CCS(=O)(=O)O.CCS(=O)(=O)O.Nc1ccc2c(c1)N1CCN(CC3CC3)C(C2)C1 (stereo not shown) [Example 1E, 4-cyclopropylmethyl-9-amino-3,4,5,6-tetrahydro-2H-1,5-methano-1,4-benzodiazocine diethanesulfonate]
ED50 ([1]; sc, subcutaneous): 3.7 mg/kg
ED50 ([2]; po): 4.8 mg/kg
ED50 ([4]; po): 13 mg/kg
tail-flick agonist activity (Tail-flick Agonist Test): at most inactive or questionably active
ED50 (Anti-bradykinin Test; oral): 4.2 mg/kg
ED50 ([7]; po): 3.5 mg/kg

Nc1ccc2c(c1)N1CCN(CC3CC3)C(C2)C1 (stereo not shown) [Example 1J, levo-4-cyclopropylmethyl-9-3,4,5,6-tetrahydro-2H-1,5-methano-1,4-benzodiazocine]
response at 75 mg./kg. (highest dose tested) ([1]; 75 mg./kg. subcutaneous): 67%
ED50 (95% Confidence Limits) ([1]; subcutaneous): 40 Mg./Kg.
antagonist response at 1 mg./kg. ([7]; against phenazocine): 10%
antagonist response at 10 mg./kg. ([7]; against phenazocine): 6%
antagonist response at 80 mg./kg. ([7]; 80 mg./kg. subcutaneous, against phenazocine): 25%

Nc1ccc2c(c1)N1CCN(CC3CC3)C(C2)C1 (stereo not shown) [Example 1K, dextro-4-cyclpropylmethyl-9-amino-3,4,5,6-tetrahydro-2H-1,5-methano-1,4-benzodiazocine]
ED50 (95% Confidence Limits) ([1]; subcutaneous): 1.0 (0.62-2.0) Mg./Kg.
ED50 ([7]; sc): 0.31 mg/kg

C=CCN1CCN2CC1Cc1ccc(N)cc12 (stereo not shown) [Example 2E, 4-allyl-9-amino-3,4,5,6-tetrahydro-2H-1,5-methano-1,4-benzodiazocine diethanesulfonate hemihydrate]
ED50 ([1]; sc, subcutaneous): 30 mg/kg
ED50 ([7]; sc): 1.6 mg/kg

CCNc1ccc2c(c1)N1CCN(CC3CC3)C(C2)C1.Cl.Cl (stereo not shown) [Example 3B, 4-cyclopropylmethyl-9-ethylamino-3,4,5,6-tetrahydro-2H-1,5-methano-1,4-benzodiazocine dihydrochloride]
ED50 ([1]; sc, subcutaneous): 3.8 mg/kg
tail-flick agonist activity (Tail-flick Agonist Test): at most inactive or questionably active
ED50 (Anti-bradykinin Test; sc, subcutaneous): 3.4 mg/kg
ED50 ([7]; sc): 4.4 mg/kg

CCCCNc1ccc2c(c1)N1CCN(CC3CC3)C(C2)C1 (stereo not shown) [Example 4B, 4-cyclopropylmethyl-9-butylamino-3,4,5,6-tetrahydro-2H-1,5-methano-1,4-benzodiazocine]
ED50 ([1]; sc, subcutaneous): 1.6 mg/kg
tail-flick agonist activity (Tail-flick Agonist Test): at most inactive or questionably active
ED50 (Anti-bradykinin Test; sc, subcutaneous): 2.9 mg/kg
antagonist response at 1 mg./kg. ([7]; against phenazocine): 6%
antagonist response at 10 mg./kg. ([7]; against phenazocine): 0%
antagonist response at 20 mg./kg. ([7]; 20 mg./kg. subcutaneous, against phenazocine): 34%
toxic effects at 20 mg./kg. ([7]; 20 mg./kg. subcutaneous, rats): toxic effects
